Bounds are passed on as bounds.

As a reminder, the IC50 is the concentration that inhibits the measured activity by half. Usually Ki stands for a measure of affinity in units of concentration, obtained from inhibition or displacement. Lower therefore signals higher affinity.

For one assay, the target named is T1, LRRK2 (Homo sapiens, UniProt Q5S007). As to the kind of experiment: LRRK2 protein kinase assay ([γ-33P] ATP, peptide substrate), IC50. Format: biochemical. The arrangement: Potency scores (LRRK2 IC50); the wild type has the same borders, PV4873; fused on or other part: GST tag. The conditions noted are these: LRRK2 form (G2019S or wild type) not given; read-out: Potency scores (LRRK2 IC50). From the text: All LRRK2 protein kinases were of human origin and were sourced from Invitrogen Corporation (Carlsbad, Calif. 92008 USA) unless otherwise indicated. The active mutant used was recombinant human, catalytic domain (amino acids 970-2527) containing a G2019S mutation, GST-tagged, expressed in insect cells (Invitrogen Cat#PV4881). The wild type used was recombinant human, catalytic domain (amino acids 970-2527) GST—tagged, expressed in insect cells (Invitrogen Cat#PV4873). The kinase dead mutant used was recombinant human, catalytic domain (amino acids 970-2527) containing a D1994A mutation, GST-tagged, expressed in insect cells (Invitrogen Cat#PM4041AE). No special measures were taken to activate any of the kinases.
All assays were carried out at room temperature ([…]) and were linear with respect to time and enzyme concentration under the conditions used. Assays were performed for 180 min in a 96 well format. LRRK2 was present at a concentration of approximately 5 nM.
The enzyme was diluted and assayed in 50 mM Tris-HCl pH7.5, 0.1 mM EGTA, 1 mM DTT and 10 mM MgCl2. The concentration of magnesium chloride in the assay was 10 mM. The [γ-33P] ATP (0.4 μCi/well) was used at 134 uM for G2019S mutant and at 57 μM for the wild type kinase in order to be at Km. The peptide substrate in the assay was […] at 100 μM.
The assays were initiated with Mg/ATP and stopped by the addition of 25 μl/well 50% orthophosphoric acid. Reactions were harvested onto Whatman P81 Unifilter Plates (Fisher Scientific. Loughborough, LE115RG, UK. Cat# FDU-105-020U) using a Tomtec harvester (Tomtec Hamden, Conn. 06514. USA). Plates were counted using a Perkin Elmer Top Count NX7. (Perkin Elmer, Shelton CT 06484-4794 USA)
IC50 values of inhibitors were determined after carrying out assays at 10 different concentrations of each compound in duplicate.
Target sequence in this assay (Q5S007 whole entry G2019S, form open, the tested form may be a part): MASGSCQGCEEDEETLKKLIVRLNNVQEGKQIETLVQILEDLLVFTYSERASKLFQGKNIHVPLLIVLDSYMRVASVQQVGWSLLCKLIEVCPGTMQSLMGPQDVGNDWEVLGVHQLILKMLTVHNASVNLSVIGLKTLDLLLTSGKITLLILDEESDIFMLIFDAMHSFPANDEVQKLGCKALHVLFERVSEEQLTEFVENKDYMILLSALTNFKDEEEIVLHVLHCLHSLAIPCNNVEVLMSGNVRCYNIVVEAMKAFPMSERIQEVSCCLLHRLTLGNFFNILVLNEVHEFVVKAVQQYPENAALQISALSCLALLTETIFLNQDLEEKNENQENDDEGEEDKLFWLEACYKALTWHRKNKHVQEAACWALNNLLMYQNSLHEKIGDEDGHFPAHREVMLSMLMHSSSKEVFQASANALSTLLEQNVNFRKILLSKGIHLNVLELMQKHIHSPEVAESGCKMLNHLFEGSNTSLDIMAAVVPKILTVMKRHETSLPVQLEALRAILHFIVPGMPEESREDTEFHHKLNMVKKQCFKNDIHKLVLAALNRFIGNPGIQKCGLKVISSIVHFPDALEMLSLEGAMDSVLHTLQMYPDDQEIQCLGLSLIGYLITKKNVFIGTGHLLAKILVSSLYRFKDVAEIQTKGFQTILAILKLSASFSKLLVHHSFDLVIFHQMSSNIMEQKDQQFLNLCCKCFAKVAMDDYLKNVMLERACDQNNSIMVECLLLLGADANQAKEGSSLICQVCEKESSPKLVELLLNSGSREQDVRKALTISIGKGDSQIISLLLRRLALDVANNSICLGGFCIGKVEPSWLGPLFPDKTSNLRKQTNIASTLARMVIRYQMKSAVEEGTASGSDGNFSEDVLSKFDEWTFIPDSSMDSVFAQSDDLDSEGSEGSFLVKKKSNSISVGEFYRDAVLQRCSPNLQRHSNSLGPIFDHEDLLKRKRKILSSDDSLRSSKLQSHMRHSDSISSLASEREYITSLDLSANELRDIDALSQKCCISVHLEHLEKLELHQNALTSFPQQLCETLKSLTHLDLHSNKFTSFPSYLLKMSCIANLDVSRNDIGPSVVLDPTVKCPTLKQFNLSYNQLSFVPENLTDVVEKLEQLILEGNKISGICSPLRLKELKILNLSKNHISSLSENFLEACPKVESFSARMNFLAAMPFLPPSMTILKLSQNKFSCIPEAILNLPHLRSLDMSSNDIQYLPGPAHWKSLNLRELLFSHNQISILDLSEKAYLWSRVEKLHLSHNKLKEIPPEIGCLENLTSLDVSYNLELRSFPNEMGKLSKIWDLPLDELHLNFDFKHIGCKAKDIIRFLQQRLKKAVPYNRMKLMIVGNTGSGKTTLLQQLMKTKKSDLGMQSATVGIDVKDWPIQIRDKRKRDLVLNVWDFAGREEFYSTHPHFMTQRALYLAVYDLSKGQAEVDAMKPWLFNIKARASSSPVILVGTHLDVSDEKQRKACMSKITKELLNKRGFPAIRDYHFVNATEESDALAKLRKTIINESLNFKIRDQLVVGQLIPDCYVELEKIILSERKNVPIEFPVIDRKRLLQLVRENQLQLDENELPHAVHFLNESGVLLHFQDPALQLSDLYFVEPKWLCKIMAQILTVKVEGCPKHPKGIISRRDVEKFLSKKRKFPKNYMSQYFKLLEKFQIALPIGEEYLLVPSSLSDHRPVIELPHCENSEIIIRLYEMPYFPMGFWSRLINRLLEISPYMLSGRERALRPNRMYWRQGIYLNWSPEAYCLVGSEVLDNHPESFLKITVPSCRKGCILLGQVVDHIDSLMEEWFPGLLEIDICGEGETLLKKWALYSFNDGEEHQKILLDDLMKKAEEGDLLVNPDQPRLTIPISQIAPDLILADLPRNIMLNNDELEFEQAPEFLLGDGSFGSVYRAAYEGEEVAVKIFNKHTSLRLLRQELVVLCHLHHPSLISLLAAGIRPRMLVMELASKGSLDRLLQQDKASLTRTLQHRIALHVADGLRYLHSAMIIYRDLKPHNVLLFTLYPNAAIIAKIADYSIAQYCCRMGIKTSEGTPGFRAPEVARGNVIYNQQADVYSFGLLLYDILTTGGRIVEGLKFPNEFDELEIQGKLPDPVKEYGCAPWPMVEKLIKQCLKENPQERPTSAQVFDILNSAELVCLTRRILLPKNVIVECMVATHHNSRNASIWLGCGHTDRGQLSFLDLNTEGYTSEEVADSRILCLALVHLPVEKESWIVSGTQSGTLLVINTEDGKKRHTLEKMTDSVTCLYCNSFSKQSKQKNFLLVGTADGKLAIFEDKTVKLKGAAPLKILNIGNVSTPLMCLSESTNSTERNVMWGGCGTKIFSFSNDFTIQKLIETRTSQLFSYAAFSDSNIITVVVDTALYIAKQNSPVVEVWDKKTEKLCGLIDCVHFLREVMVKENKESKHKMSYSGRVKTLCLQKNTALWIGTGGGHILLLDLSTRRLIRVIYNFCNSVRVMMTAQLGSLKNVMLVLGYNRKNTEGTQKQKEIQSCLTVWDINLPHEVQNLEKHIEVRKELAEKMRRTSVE
Consider `Cc1n[nH]c2cc(Cl)nc(NC3CCCCC3)c12` [Example 1], for which the IC50 lay in the range of 100 to 1000 nM.

As to `Cc1n[nH]c2cc(Cl)nc(OC3CCCCC3)c12` [Example 2], the IC50 is 100 to 1000 nM.

With `Cc1n[nH]c2cc(N3CCOCC3)nc(OC3CCCCC3)c12` [Example 3], the concentration for half-maximal inhibition (IC50) lay in the range of 1000 to 10000 nM.

`Cc1n[nH]c2cc(-c3cnn(C)c3)nc(OC3CCCCC3)c12` [Example 4]: the IC50 is 1000 to 10000 nM.

For `Cc1cc2[nH]nc(C)c2c(NC2CCCCC2)n1` [Example 5], the IC50 is 1000 to 10000 nM.

On to `Cc1cc2[nH]nc(C)c2c(OC2CCCCC2)n1` [Example 6], for which the IC50 lay in the range of 100 to 1000 nM.

For `Cc1cc2[nH]nc(C)c2c(-c2ccco2)n1` [Example 7], the IC50 was 100 to 1000 nM.

Turning to `Cc1n[nH]c2cncc(-c3ccco3)c12` [Example 8], the IC50 was in the range of 100 to 1000 nM.

For the compound `Cc1n[nH]c2cncc(NC3CCCCC3)c12` [Example 9], the IC50 is 100 to 1000 nM.

Regarding `Cc1n[nH]c2cncc(OC3CCCCC3)c12` [Example 10], the IC50 fell in the range of 100 to 1000 nM.

Another assay deals with T1, LRRK2. The assay is described as follows: LRRK2 KI determination.
Conditions: not given
It counts as biochemical.
Target sequence in this assay (Q5S007 970-2527): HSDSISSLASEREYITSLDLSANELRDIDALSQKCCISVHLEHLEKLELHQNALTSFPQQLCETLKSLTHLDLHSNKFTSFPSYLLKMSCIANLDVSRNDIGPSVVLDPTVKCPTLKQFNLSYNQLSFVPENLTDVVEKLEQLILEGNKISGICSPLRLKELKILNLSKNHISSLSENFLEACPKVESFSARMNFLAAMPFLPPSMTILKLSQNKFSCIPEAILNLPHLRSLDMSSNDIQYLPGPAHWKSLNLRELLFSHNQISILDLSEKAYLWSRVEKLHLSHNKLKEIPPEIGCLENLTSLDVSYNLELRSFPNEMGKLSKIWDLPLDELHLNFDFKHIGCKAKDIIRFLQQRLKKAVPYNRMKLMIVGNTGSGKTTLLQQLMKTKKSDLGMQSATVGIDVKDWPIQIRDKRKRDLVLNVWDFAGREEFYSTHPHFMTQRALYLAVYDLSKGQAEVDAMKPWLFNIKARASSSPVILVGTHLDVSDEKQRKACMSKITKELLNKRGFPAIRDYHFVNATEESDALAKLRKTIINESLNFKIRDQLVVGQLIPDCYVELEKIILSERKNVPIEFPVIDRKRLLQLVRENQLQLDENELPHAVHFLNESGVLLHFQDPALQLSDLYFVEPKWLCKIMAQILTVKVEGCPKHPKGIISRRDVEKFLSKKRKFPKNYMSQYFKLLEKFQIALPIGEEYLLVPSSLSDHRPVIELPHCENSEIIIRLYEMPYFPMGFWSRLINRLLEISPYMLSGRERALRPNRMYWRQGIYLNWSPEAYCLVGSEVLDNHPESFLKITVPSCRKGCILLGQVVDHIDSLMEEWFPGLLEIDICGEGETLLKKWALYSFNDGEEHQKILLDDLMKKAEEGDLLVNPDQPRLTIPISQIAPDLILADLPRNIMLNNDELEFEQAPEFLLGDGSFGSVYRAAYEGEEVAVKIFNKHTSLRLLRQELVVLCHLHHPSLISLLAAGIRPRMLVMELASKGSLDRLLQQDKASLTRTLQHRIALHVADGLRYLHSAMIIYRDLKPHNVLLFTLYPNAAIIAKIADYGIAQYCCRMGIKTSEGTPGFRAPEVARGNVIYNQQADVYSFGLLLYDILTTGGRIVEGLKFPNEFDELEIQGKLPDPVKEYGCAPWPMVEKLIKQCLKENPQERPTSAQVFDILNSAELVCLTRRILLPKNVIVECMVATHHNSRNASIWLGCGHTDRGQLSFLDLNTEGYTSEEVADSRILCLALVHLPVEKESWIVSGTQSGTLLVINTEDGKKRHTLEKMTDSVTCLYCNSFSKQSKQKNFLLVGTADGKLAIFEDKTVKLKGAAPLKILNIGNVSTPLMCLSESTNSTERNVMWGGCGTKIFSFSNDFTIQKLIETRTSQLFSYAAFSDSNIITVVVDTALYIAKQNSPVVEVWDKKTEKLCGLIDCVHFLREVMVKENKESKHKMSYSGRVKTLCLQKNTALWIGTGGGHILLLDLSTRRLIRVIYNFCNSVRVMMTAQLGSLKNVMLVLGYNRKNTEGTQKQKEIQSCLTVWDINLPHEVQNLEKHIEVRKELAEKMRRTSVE
`CC(C)Cn1cc(-c2n[nH]c3cc(C#N)nc(OC4CCOCC4)c23)cn1` [Example 11, 3-(1-isobutyl-1H-pyrazol-4-yl)-4-(tetrahydro-2H-pyran-4-yloxy)-1H-pyrazolo[4,3-c]pyridine-6-carbonitrile]: the Ki was less than 100 nM.

In the case of `Clc1cc2[nH]nc(-c3ccnc(N4CCOCC4)c3)c2c(OC2CCOCC2)n1` [Example 12, 4-(4-(6-chloro-4-(tetrahydro-2H-pyran-4-yloxy)-1H-pyrazolo[4,3-c]pyridin-3-yl)pyridin-2-yl)morpholine], the Ki is less than 100 nM.

The compound `N#Cc1cc2[nH]nc(-c3ccnc(N4CCOCC4)c3)c2c(OC2CCOCC2)n1` [Example 13] gave a Ki of 100 to 1000 nM.

With `Cc1[nH]nc2cc(C3CC3)nc(OC3CCCCC3)c12` [Example 14, 4-(cyclohexyloxy)-6-cyclopropyl-3-methyl-1H-pyrazolo[4,3-c]pyridine], the Ki fell in the range of 100 to 1000 nM.

Turning to `CC(C)n1cc(-c2n[nH]c3cc(C(F)(F)F)nc(OC4CCOCC4)c23)cn1` [Example 15, 3-(1-isopropyl-1H-pyrazol-4-yl)-4-(tetrahydro-2H-pyran-4-yloxy)-6-(trifluoromethyl)-1H-pyrazolo[4,3-c]pyridine], the Ki is less than 100 nM.

`Cc1cc2[nH]nc(-c3cc(C(=O)N(C)C)ccn3)c2c(NC2CCOCC2)n1` [Example 16, N,N-dimethyl-2-(6-methyl-4-(tetrahydro-2H-pyran-4-ylamino)-1H-pyrazolo[4,3-c]pyridin-3-yl)isonicotinamide] had a Ki of 100 to 1000 nM.

The compound `CCOc1cc(-c2n[nH]c3cc(C)nc(NC4CCOCC4)c23)ncn1` [Example 17, 3-(6-ethoxypyrimidin-4-yl)-6-methyl-N-(tetrahydro-2H-pyran-4-yl)-1H-pyrazolo[4,3-c]pyridin-4-amine] showed a Ki of less than 100 nM.

`Cc1cc2[nH]nc(-c3cc(C(F)(F)F)ccn3)c2c(NC2CCOCC2)n1` [Example 18, 6-methyl-N-(tetrahydro-2H-pyran-4-yl)-3-(4-(trifluoromethyl)pyridin-2-yl)-1H-pyrazolo[4,3-c]pyridin-4-amine] yielded a Ki of less than 100 nM.

In turn, `Cc1cc2[nH]nc(-c3cc(C(F)(F)F)ncn3)c2c(NC2CCOCC2)n1` [Example 19, 6-methyl-N-(tetrahydro-2H-pyran-4-yl)-3-(6-(trifluoromethyl)pyrimidin-4-yl)-1H-pyrazolo[4,3-c]pyridin-4-amine] showed a Ki of less than 100 nM.

`COc1nc(C)cc2[nH]nc(-c3ccnc(N4CCOCC4)c3)c12` [Example 20, 4-(4-(4-methoxy-6-methyl-1H-pyrazolo[4,3-c]pyridin-3-yl)pyridin-2-yl)morpholine] returned a Ki of 100 to 1000 nM.

`CNC(=O)c1cccc(-c2[nH]nc3cc(C)nc(OC)c23)c1` [Example 21, 3-(4-Methoxy-6-methyl-1H-pyrazolo[4,3-c]pyridin-3-yl)-N-methylbenzamide] showed a Ki of 100 to 1000 nM.

`Cc1cc2[nH]nc(-c3ccnc(N4CCOCC4)c3)c2c(OC2CCOCC2)n1` [Example 22, 4-(4-(6-Methyl-4-(tetrahydro-2H-pyran-4-yloxy)-1H-pyrazolo[4,3-c]pyridin-3-yl)pyridin-2-yl)morpholine]: the Ki was less than 100 nM.

Take `CNC(=O)c1cccc(-c2[nH]nc3cc(C)nc(OC4CCOCC4)c23)c1` [Example 23, N-Methyl-3-(6-Methyl-4-(tetrahydro-2H-pyran-4-yloxy)-1H-pyrazolo[4,3-c]pyridin-3-yl)benzamide]: the Ki was in the range of 100 to 1000 nM.

`Cc1cc2[nH]nc(-c3cnn(C4CCOCC4)c3)c2c(OC2CCOCC2)n1` [Example 24, 6-Methyl-3-(1-(tetrahydro-2H-pyran-4-yl)-1H-pyrazol-4-yl)-4-(tetrahydro-2H-pyran-4-yloxy)-1H-pyrazolo[4,3-c]pyridine] gave an inhibitory constant (Ki) of less than 100 nM.

Take `COc1nc(C)cc2[nH]nc(-c3cnn(C4CCOCC4)c3)c12` [Example 25, 4-Methoxy-6-methyl-3-(1-(tetrahydro-2H-pyran-4-yl)-1H-pyrazol-4-yl)-1H-pyrazolo[4,3-c]pyridine]: the Ki is less than 100 nM.
